Assay results: EPA's ToxValDB 9.5 (doi:10.2903/j.efsa.2010.1631)

Tests used:
[1] = chronic/long-term; development
Bibionidae = details: chronic/long-term; duration: 28 days
Cyprinus carpio = details: acute; duration: 96 hours; mortality
Tagia sp. = details: acute; duration: 14 days; mortality
Pimephales promelas = details: chronic/long-term; duration: 30 days; growth
Canidae = details: oral, Dog Other, body weight
Daphnia magna = details: chronic/long-term; duration: 21 days; reproduction
Apis mellifera = details: acute; duration: 48 hours; dermal; mortality
Coturnix coturnix = details: acute; oral; mortality
Anas platyrhynchos = details: acute; oral; unspecified; mortality
Mus musculus = details: acute; oral; mortality
Aphidius rhopalosiphi = test: LR50; higher = less toxic; details: not reported; mortality

Molecule CC(=O)O.CCCCCCCCCCCCN=C(N)N [Dodecylguanidine acetate] has an NOEL [1] of 45 mg/kg-day, an NOEC (Bibionidae) of 3.2 mg/L and an LC50 (Cyprinus carpio) of 0.6 µg/mL. It also gave an LC50 (Tagia sp.) of 547 mg/kg, an NOEC (Tagia sp.) of 171 mg/kg and an NOEC (Pimephales promelas) of 0.099 mg/L. It also gave an NOAEL (Canidae; chronic, duration: 1 years) of 10 mg/kg-day, an NOAEL (Canidae; subchronic, duration: 90 days) of 10 mg/kg-day and an NOEC (Daphnia magna) of 0.0044 mg/L. It also gave an LD50 (Apis mellifera) greater than 100 µg/piece, an LD50 (Coturnix coturnix) of 981 mg/kg-day and an LD50 (Anas platyrhynchos) of 857 mg/kg-day. For the same molecule, the LD50 (Mus musculus) was 1350 mg/kg-day, the LD50 (Rattus norvegicus; acute, oral, mortality) was 851 mg/kg-day and the NOEL (Rattus norvegicus; chronic, body weight) was 18.6 mg/kg-day. It also gave an NOAEL (Rattus norvegicus; reproduction developmental, body weight) of 10 mg/kg-day and an LR50 (Aphidius rhopalosiphi) greater than 1800 g/ha.
